{
  "source": "paper PMC5773577",
  "about": "“Novel Miniature Membrane Active Lipopeptidomimetics against Planktonic and Biofilm Embedded Methicillin-Resistant Staphylococcus aureus” (Scientific Reports, 2018)",
  "format_in_all_cases": "cell-based, Staphylococcus aureus",
  "key": {"MRSA ATCC 33591 [1]": {"test_system": "MRSA ATCC 33591", "assay": "Membrane depolarization assay, DiSC3(5)", "conditions": "for % depolarization relative to melittin control (10 μM, set as 100%): 2 min, DiSC3(5), HEPES-glucose buffer pH 7.2, 37 °C, mean ± S.D., two days", "description": "The cytoplasmic membrane depolarization in MRSA ATCC 33591 strain was measured using membrane potential sensitive dye 3,3′-dipropylthiacarbocyanine iodide (DiSC3(5)) with a protocol described previously with slight modifications[23],[48]. Briefly, exponential phase cells grown in MHB were harvested by centrifugation, washed and re-suspended in respiration buffer (5 mM HEPES, 20 mM glucose, pH 7.2) to 2.5 × 10^6 CFU/mL. The cells were divided into 1 mL aliquots and incubated with 3.6 μM of DiSC3(5) (in dark) for 30 min to get steady baseline fluorescence intensity. The dye-loaded cells (800 μL) were then treated with peptidomimetics at respective 1× and 4× MIC concentrations (2–20 μL) and consequent fluorescence increase after 2 min of addition was measured in a Shimadzu RF-5301 PC spectrofluorimeter. As controls IL, melittin and VAN were also assayed under identical conditions. The samples were excited at 622 nm and emission was recorded between 650–700 nm with 3 nm slit width for both excitation and emission. The temperature was maintained at 37 °C throughout the experiment. Depolarization kinetics was measured at 4 × MIC of test agents for 5 min. The experiment was repeated on two different days and for Fig. 3 panel (A) mean ± S.D. data for % depolarization relative to melittin control (10 μM) set as 100% is presented here. For panel (B) representative data is shown here. The viability of dye-loaded cells corresponding to depolarization experiment at 4 × MIC concentration was also measured by plating the diluted aliquots onto BHI agar plates."}, "MRSA ATCC 33591 [2]": {"test_system": "MRSA ATCC 33591", "assay": "Cell viability corresponding to calcein leakage experiment", "conditions": "calcein-loaded cells in PBS, 4 × MIC (melittin 10 μM), 2 h incubation", "method": "To assess the effect of designed peptidomimetics on membrane integrity of MRSA ATCC 33591 strain a calcein-AM dye release experiment was performed using the protocol described previously with slight modifications[51]. Briefly, exponential phase MRSA ATCC 33591 culture was prepared in MHB medium as mentioned earlier and adjusted to OD600 = 1 (~10^9 CFU/mL) in PBS (10 mM sodium phosphate, 150 mM NaCl, pH 7.4). Thereafter, the cells were incubated at 37 °C with calcein-AM (2 μg/mL) in 10% MHB medium for 2 h. The calcein-loaded cells were washed once and re-suspended in PBS to OD600 = 0.5 (~10^8 CFU/mL). The cells were diluted 100× in PBS to get 3–5 × 10^5 CFU/mL and were incubated with different concentrations of test agents at 37 °C in dark for 2 h. Subsequently, calcein fluorescence was measured via flow cytometry (Becton Dickinson (BD) FACS verse, San Jose, CA) with excitation and emission wavelengths of 488 nm and 530 ± 30 nm, respectively. For each sample, 10,000 cells were acquired. As a positive control, melittin (10 μM) was assayed under identical conditions. The experiment was repeated on two different days and mean ± S.D. is presented here. […]\nagar plates. The plates were incubated at 37 °C for 16-18 h and colonies were counted. […]"}, "S. aureus (ATCC 29213)": {"test_system": "S. aureus (ATCC 29213)", "assay": "microbe, parasite or virus in culture", "conditions": "Staphylococcus aureus, ATCC29213, MHB, 2–5 × 10^5 CFU/mL, 16–18 h, 37 °C, OD600, duplicate, at least three days, read-out: Minimum inhibitory concentration, MIC", "description": "(§1) The antibacterial activity was evaluated as MIC using slight modifications to a serial broth micro dilution method as reported previously[66],[67]. Briefly, to each treatment well of the 96-well plate (Corning Incorporated, USA) 10 μL of peptidomimetic/antibiotic was added and subsequently diluted serial 2-fold in 0.2% BSA (in 0.01% acetic acid). Then to each well of the first 11 columns 100 μL of mid-log phase bacterial suspension in MHB medium was added to get 2–5 × 10^5 CFU/mL. Cultures without test peptidomimetics/antibiotics were used as growth control. Uninoculated MHB medium was used as negative control. The microtitre plates were incubated overnight with agitation (180 rpm) at 37 °C. After 16–18 h incubation, absorbance was read at 600 nm using an ELISA plate reader (Molecular Devices, Sunnyvale, CA, USA). The experiments were carried out in duplicate on at least three different days."}, "S. aureus (ISP479C)": {"test_system": "S. aureus (ISP479C)", "assay": "microbe, parasite or virus in culture", "conditions": "Staphylococcus aureus, MHB, 2–5 × 10^5 CFU/mL, 16–18 h, 37 °C, OD600, read-out: Minimum inhibitory concentration, MIC", "description": "as §1"}, "MRSA (ATCC 43300)": {"test_system": "MRSA (ATCC 43300)", "assay": "microbe, parasite or virus in culture", "conditions": "Staphylococcus aureus, MHB, 2–5 × 10^5 CFU/mL, 16–18 h, 37 °C, OD600, read-out: Minimum inhibitory concentration, MIC", "description": "as §1"}, "S. aureus (ATCC 25923)": {"test_system": "S. aureus (ATCC 25923)", "assay": "microbe, parasite or virus in culture", "conditions": "Staphylococcus aureus, ATCC25923, MHB, 2–5 × 10^5 CFU/mL, 16–18 h, 37 °C, OD600, read-out: Minimum inhibitory concentration, MIC", "description": "as §1"}, "MRSA (ATCC 33591)": {"test_system": "MRSA (ATCC 33591)", "assay": "microbe, parasite or virus in culture", "conditions": "Staphylococcus aureus, MHB, 2–5 × 10^5 CFU/mL, 16–18 h, 37 °C, OD600, read-out: Minimum inhibitory concentration, MIC", "description": "as §1"}},
  "data": [
    {"smiles": "CN[C@H](CC(C)C)C(=O)N[C@H]1C(=O)N[C@@H](CC(N)=O)C(=O)N[C@H]2C(=O)N[C@H]3C(=O)N[C@H](C(=O)N[C@H](C(=O)O)c4cc(O)cc(O)c4-c4cc3ccc4O)[C@H](O)c3ccc(c(Cl)c3)Oc3cc2cc(c3O[C@@H]2O[C@H](CO)[C@@H](O)[C@H](O)[C@H]2O[C@H]2C[C@](C)(N)[C@H](O)[C@H](C)O2)Oc2ccc(cc2Cl)[C@H]1O", "note": "[VAN, vancomycin]", "values": [
      {"measurement": "Depolarization kinetics: time to increase in relative fluorescence intensity (RFI)", "setting": "MRSA ATCC 33591 [1]; 4 × MIC, monitored for 5 min", "result": "RFI values similar to untreated control cells"},
      {"measurement": "% depolarization relative to melittin control (10 μM, set as 100%)", "setting": "MRSA ATCC 33591 [1]; at 4 × MIC", "result": "4.7 ± 4.1", "unit": "%"},
      {"measurement": "% depolarization relative to melittin control (10 μM, set as 100%)", "setting": "MRSA ATCC 33591 [1]; at MIC", "result": "2.9 ± 4.8", "unit": "%"},
      {"measurement": "log reduction in viability", "setting": "MRSA ATCC 33591 [2]", "result": "no reduction"},
      {"measurement": "MIC", "setting": "S. aureus (ATCC 29213)", "result": 0.7, "unit": "µg/mL"},
      {"measurement": "MIC", "setting": "S. aureus (ISP479C)", "result": 0.3, "unit": "µg/mL"},
      {"measurement": "MIC", "setting": "MRSA (ATCC 43300)", "result": 0.7, "unit": "µg/mL"},
      {"measurement": "MIC", "setting": "S. aureus (ATCC 25923)", "result": 1.4, "unit": "µg/mL"},
      {"measurement": "MIC", "setting": "MRSA (ATCC 33591)", "result": 1.4, "unit": "µg/mL"}
    ]}
  ]
}
